# Results published in the supplement of paper PMC11451515.
# Tested on: P12-Ichikawa
# Assay: cell viability relative to DMSO control; higher = less cytotoxic
# Details: 48 h
# Summary of the method: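 In 1536-well plates, 5 μl of leukemia cells were seeded per well: 500 cells/well for NOMO1 or SEM and 1000 cells/well for P12-Ichikawa. Each line had first been adapted for at least four passages in each medium. Library compounds in DMSO were pin-dosed at 11 threefold concentrations between 47 μM and 0.79 nM, and CellTiter-Glo One luminescence was read after 48 h at 37°C. Viability is a per-plate percentage relative to DMSO wells, with cell-free wells as background.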
# [1] = HPLM + 10% dialyzed FBS, 0.000781 µM
# [2] = HPLM + 10% dialyzed FBS, 0.00234 µM
# [3] = HPLM + 10% dialyzed FBS, 0.00702 µM
# [4] = HPLM + 10% dialyzed FBS, 0.0211 µM
# [5] = HPLM + 10% dialyzed FBS, 0.0632 µM
# [6] = HPLM + 10% dialyzed FBS, 0.19 µM
# [7] = HPLM + 10% dialyzed FBS, 0.569 µM
# [8] = HPLM + 10% dialyzed FBS, 1.71 µM
# [9] = HPLM + 10% dialyzed FBS, 5.12 µM
# [10] = HPLM + 10% dialyzed FBS, 15.4 µM
# [11] = HPLM + 10% dialyzed FBS, 46.1 µM
# [12] = RPMI 5 mM glucose + 10% FBS, 0.000781 µM
# [13] = RPMI 5 mM glucose + 10% FBS, 0.00234 µM
# [14] = RPMI 5 mM glucose + 10% FBS, 0.00702 µM
# [15] = RPMI 5 mM glucose + 10% FBS, 0.0211 µM
# [16] = RPMI 5 mM glucose + 10% FBS, 0.0632 µM
# [17] = RPMI 5 mM glucose + 10% FBS, 0.19 µM
# [18] = RPMI 5 mM glucose + 10% FBS, 0.569 µM
# [19] = RPMI 5 mM glucose + 10% FBS, 1.71 µM
# [20] = RPMI 5 mM glucose + 10% FBS, 5.12 µM
# [21] = RPMI 5 mM glucose + 10% FBS, 15.4 µM
# [22] = RPMI 5 mM glucose + 10% FBS, 46.1 µM
# [23] = RPMI 5 mM glucose + 10% dialyzed FBS, 0.000781 µM
# [24] = RPMI 5 mM glucose + 10% dialyzed FBS, 0.00234 µM
# [25] = RPMI 5 mM glucose + 10% dialyzed FBS, 0.00702 µM
# [26] = RPMI 5 mM glucose + 10% dialyzed FBS, 0.0211 µM
# [27] = RPMI 5 mM glucose + 10% dialyzed FBS, 0.0632 µM
# [28] = RPMI 5 mM glucose + 10% dialyzed FBS, 0.19 µM
# [29] = RPMI 5 mM glucose + 10% dialyzed FBS, 0.569 µM
# [30] = RPMI 5 mM glucose + 10% dialyzed FBS, 1.71 µM
# [31] = RPMI 5 mM glucose + 10% dialyzed FBS, 5.12 µM
# [32] = RPMI 5 mM glucose + 10% dialyzed FBS, 15.4 µM
# [33] = RPMI 5 mM glucose + 10% dialyzed FBS, 46.1 µM
SMILES,cell viability [1] [%],cell viability [2] [%],cell viability [3] [%],cell viability [4] [%],cell viability [5] [%],cell viability [6] [%],cell viability [7] [%],cell viability [8] [%],cell viability [9] [%],cell viability [10] [%],cell viability [11] [%],cell viability [12] [%],cell viability [13] [%],cell viability [14] [%],cell viability [15] [%],cell viability [16] [%],cell viability [17] [%],cell viability [18] [%],cell viability [19] [%],cell viability [20] [%],cell viability [21] [%],cell viability [22] [%],cell viability [23] [%],cell viability [24] [%],cell viability [25] [%],cell viability [26] [%],cell viability [27] [%],cell viability [28] [%],cell viability [29] [%],cell viability [30] [%],cell viability [31] [%],cell viability [32] [%],cell viability [33] [%]
COc1cc2ncnc(Nc3ccc(F)c(Cl)c3)c2cc1NC(=O)/C=C/CN1CCCCC1,109,108,103,106,107,97.6,106,90.1,85.4,79.1,67.9,106,106,103,101,102,106,102,92.6,85.7,82.9,75.2,101,109,94.5,109,105,102,104,88.4,80.9,76,67.8
FC(F)c1nc2ccccc2n1-c1nc(N2CCOCC2)nc(N2CCOCC2)n1,98.2,108,107,104,101,91.4,85.4,78.5,83.8,81.9,59.1,98,104,96,85.4,92.8,71,64.7,58.9,61.1,58.7,58,106,94.5,103,102,95.3,92.6,75.7,54.4,63.5,64.8,55.8
CN(C)[C@H]\1[C@@H]2C[C@H]3C(=C(O)\[C@]2(O)C(=O)\C(=C1O)C(N)=O)/C(=O)C4=C(O)C=CC=C4[C@@]3(C)O,113,115,114,115,113,116,114,111,114,108,93.9,112,103,109,116,118,110,114,107,115,92.8,98.8,114,101,114,111,116,116,111,104,105,97.5,97
CCn1c(-c2nonc2N)nc2cnc(Oc3cccc(NC(=O)c4ccc(OCCN5CCOCC5)cc4)c3)cc21,110,107,111,111,112,109,112,116,94.9,77,70.1,106,122,107,115,107,113,98.5,102,89.5,66.3,55.4,104,116,127,117,115,124,117,102,102,74.9,69.5
Cc1cc(C(C)(C)C)c(O)c(C)c1CC1=NCCN1,96.4,98.3,105,98.3,100,104,110,96.6,97.5,71.1,69.5,92.6,98.5,98.5,106,99.2,96.6,99.1,93.8,103,63.7,60.5,89.8,89,94.4,95.5,94.5,104,97.9,105,98.7,53.8,48.9
N#Cc1c(NC(=O)c2cccc3ccccc23)sc2c1CCCC2,121,122,126,123,136,132,82.4,21.6,18.2,28.2,27.4,–,–,–,–,–,–,–,–,–,–,–,–,–,–,–,–,–,–,–,–,–,–
C[S+]([O-])(=O)C1=CC=C(C=C1)C/2=C(/C(=O)OC2)C3=CC=CC=C3,113,120,112,122,126,126,117,125,123,125,122,108,125,112,115,124,133,141,135,134,132,131,107,120,115,110,123,120,120,118,125,121,109
Cc1[nH]c2ccccc2c1CCNCc1ccc(/C=C/C(=O)NO)cc1,109,106,111,120,121,103,63.1,7.05,6.95,7.08,7.23,106,120,108,107,128,109,48.2,6.65,6.49,8.3,6.44,114,109,117,111,122,113,74.4,6.85,6.73,6.95,7.21
